Legend:
[1] = system: Ph chromosome-positive leukemia cells; conditions: cited from earlier work
[2] = system: peripheral blood cells positive for Ph chromosome; conditions: of 18 CML patients; after five months of imatinib treatment
Text: The remaining four were reserved to test the predictive scoring system later. Of the 22, two “learning” cases (the cases used for the construction of the prediction system described later) were in blast crisis phase and two “test” cases (the cases used for testing the correctness of the prediction system described later) were in accelerated phase.

Question: Which adverse effects ([1]; CML patients) does the source give for `Cc1ccc(NC(=O)c2ccc(CN3CCN(C)CC3)cc2)cc1Nc1nccc(-c2cccnc2)n1` [imatinib, 4-(4-methylpiperazin-1-ylmethyl)-N-[4-methyl-3-(4-pyridin-3-ylpyrimidin-2-ylamino)phenyl]benzamide] here?
Answer: The adverse effects was “without severe adverse effects”.

Question: What about the “patients in whom Ph chromosome-positive leukemia cells are completely or partially reduced” value ([1]; CML patients) of the same compound?
Answer: The value was “more than 60%”.

Question: And the “CML patients induced into hematological complete remission” value [1]?
Answer: Its value is “around 90%”.

Question: What about the “patients with more than 65% of cells still positive for the Ph chromosome, non-responders” value [2] of the same compound?
Answer: Its value is “six”.

— patent publication US20060246436A1 (priority 2002, published 2006)
